Reference: patent publication US5266707A, “3,5-dihydroxyheptanoic acid derivatives” (Fujirebio Inc., priority 1991, dated 1993)
Read-outs that look alike come from different tables or passages of the source.

Assays:
HMG-CoA Reductase = biological target: T1, HMG-CoA Reductase (Rattus norvegicus, UniProt P51639); experiment: Measurement of Inhibitory Activity on HMG-CoA Reductase (activity ratio of biosynthesis of cholesterol); type: biochemical
T1 construct: from tissue
T1 sequence (P51639 1-887): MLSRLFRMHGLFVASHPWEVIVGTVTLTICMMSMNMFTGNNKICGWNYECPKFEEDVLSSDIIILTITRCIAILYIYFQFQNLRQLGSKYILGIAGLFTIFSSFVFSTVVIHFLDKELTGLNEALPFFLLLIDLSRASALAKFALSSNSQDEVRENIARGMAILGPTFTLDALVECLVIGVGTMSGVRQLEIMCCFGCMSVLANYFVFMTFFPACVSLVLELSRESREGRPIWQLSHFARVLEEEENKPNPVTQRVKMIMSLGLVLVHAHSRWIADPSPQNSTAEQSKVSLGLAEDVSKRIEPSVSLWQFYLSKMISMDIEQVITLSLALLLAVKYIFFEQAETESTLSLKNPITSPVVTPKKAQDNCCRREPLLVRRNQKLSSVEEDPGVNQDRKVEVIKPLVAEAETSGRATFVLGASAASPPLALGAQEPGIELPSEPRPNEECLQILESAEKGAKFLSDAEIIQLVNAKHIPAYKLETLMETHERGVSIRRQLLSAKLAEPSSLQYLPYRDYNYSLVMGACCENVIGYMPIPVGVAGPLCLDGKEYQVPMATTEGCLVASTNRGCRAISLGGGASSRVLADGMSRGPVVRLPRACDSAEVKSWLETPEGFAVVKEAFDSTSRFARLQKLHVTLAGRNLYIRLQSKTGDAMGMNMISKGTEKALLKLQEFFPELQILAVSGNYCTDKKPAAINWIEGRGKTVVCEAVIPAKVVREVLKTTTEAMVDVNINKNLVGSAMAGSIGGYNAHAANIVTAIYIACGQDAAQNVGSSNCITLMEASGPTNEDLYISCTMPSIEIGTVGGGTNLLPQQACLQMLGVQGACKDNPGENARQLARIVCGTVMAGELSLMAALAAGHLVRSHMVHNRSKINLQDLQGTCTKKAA

[1] = tested on: automatic TBARS reproduction of the rat brain homogenate; experiment: Measurement of Anti-oxidation Function (inhibition of automatic TBARS reproduction of rat brain homogenate); type: biochemical; conditions: inhibition of TBARS in rat brain homogenate
[2] = tested on: total serum cholesterol in model rats with Triton-induced hyperlipemia; experiment: Measurement of Reduction in Cholesterol Value (total serum cholesterol, Triton-induced hyperlipemia model rats); type: in vivo, rat; conditions: value of Compactin (ML-236B) as reference (100)
[3] = Relative value when the value of Compactin is 100

SMILES	Activity ratio of Biosynthesis of Cholesterol, Reactive Inhibitory Potency (HMG-CoA Reductase; [3])	IC50 [1]	Reduction of Cholesterol Value [2]	Activity ratio of Biosynthesis of Cholesterol, Reactive Inhibitory Potency (HMG-CoA Reductase)
Cc1c(CC[C@@H]2C[C@@H](O)CC(=O)O2)c2c(c(C)c1-n1cc3ccccc3c1)CC(C)(C)O2 (relative stereo) [Compound No. 14, trans-(±)-6-[2,3-dihydro-5-isoindolyl-2,2,4,6-tetramethylbenzo[b]furan-7-yl]ethyl-4-hydroxytetrahydropyran-2-one]	250			
Cc1c(N)c(C)c2c(c1CC[C@H]1C[C@H](O)CC(=O)O1)OC(C)(C)C2 (racemic) [Compound No. 10, trans-(±)-6-[5-amino-2,3-dihydro-2,2,4,6-tetramethylbenzo[b]furan-7-yl]ethyl-4-hydroxytetrahydropyran-2-one]		2.75 µM		
Cc1c(CC[C@H]2C[C@H](O)CC(=O)O2)c2c(c(C)c1N1Cc3ccccc3C1)CC(C)(C)O2 (racemic) [Compound No. 13, trans-(±)-6-[2,3-dihydro-5-(isoindolin-2-yl)-2,2,4,6-tetramethylbenzo[b]furan-7-yl]ethyl-4-hydroxytetrahydropyran-2-one]	250	1.44 µM	180	
CC[C@H](C)C(=O)O[C@H]1CCC=C2C=C[C@H](C)[C@H](CC[C@@H]3C[C@@H](O)CC(=O)O3)[C@H]21 [Compactin, reference compound]			100	
Cc1c(CC[C@H]2C[C@H](O)CC(=O)O2)c2c(c(C)c1N1CCc3ccccc3C1)CC(C)(C)O2 (racemic) [Compound No. 24, trans-(±)-6-[2,3-dihydro-5-(1,2,3,4-tetrahydroisoquinolin-2-yl)-2,2,4,6-tetramethylbenzo[b]furan-7-yl]ethyl-4-hydroxytetrahydropyran-2-one]		1.63 µM		
CC(C)c1c(N2Cc3ccccc3C2)cc2c(c1CCC(O)CC(O)CC(=O)[O-])OC(C)(C)C2.[Na+] (stereo not shown) [Compound No. 76, sodium 7-[2,3-dihydro-5-(isoindolin-2-yl)-2,2-dimethyl-6-(propan-2-yl)benzo[b]furan-7-yl]-3,5-dihydroxyheptanoate]		6.5 µM		2730
Cc1c(CCC(O)CC(O)CC(=O)[O-])c2c(c(C)c1N1Cc3ccccc3C1)CC(C)(C)O2.[Na+] (stereo not shown) [Compound No. 15, sodium 7-[2,3-dihydro-5-(isoindolin-2-yl)-2,2,4,6-tetramethylbenzo[b]furan-7-yl]-3,5-dihydroxyheptanoate]		1.67 µM	320	830
CC1(C)Cc2cc(N3Cc4ccccc4C3)c(C(C)(C)C)c(CCC(O)CC(O)CC(=O)O)c2O1 (stereo not shown) [Compound No. 93, sodium 7-[6-(t-butyl)-2,3-dihydro-5-(isoindolin-2-yl)-2,2-dimethylbenzo[b]furan-7-yl]-3,5-dihydroxyheptanoate]		2 µM		
Cc1c2c(c(CC[C@H]3C[C@H](O)CC(=O)O3)c(C(C)C)c1NCc1ccccc1)OC(C)(C)C2 (racemic) [Compound No. 43, trans-(±)-6-[5-benzylamino-2,3-dihydro-2,2,4-trimethyl-6-(propan-2-yl)benzo[b]furan-7-yl]ethyl-4-hydroxytetrahydropyran-2-one]	170			
Cc1c(CCC(O)CC(O)CC(=O)O)c2c(c(C)c1-n1cc3ccccc3c1)CC(C)(C)O2 (racemic) [Compound No. 94, sodium 7-[2,3-dihydro-5-isoindolyl-2,2,4,6-tetramethylbenzo[b]furan-7-yl]-3,5-dihydroxyheptanoate]	1550			
Cc1c(CC[C@H]2C[C@H](O)CC(=O)O2)c2c(c(C)c1N1CCCC1)CC(C)(C)O2 (racemic) [Compound No. 17, trans-(±)-6-[2,3-dihydro-2,2,4,6-tetramethyl-5-(pyrrolidin-1-yl)benzo[b]furan-7-yl]ethyl-4-hydroxytetrahydropyran-2-one]		1.49 µM		
Cc1c(CCC(O)CC(O)CC(=O)O)c2c(c(C)c1N1Cc3ccccc3C1)CC(C)(C)O2 (stereo not shown) [Compound No. 12, 7-[2,3-dihydro-5-(isoindolin-2-yl)-2,2,4,6-tetramethylbenzo[b]furan-7-yl]3,5-dihydroxyheptoic acid]	1500	1.58 µM	330	
